In patent publication US7915276B2, “Berberrubine derivatives having antifungal activities” (priority 2006, dated 2011):

What was measured:
[1] = molecular target: T1, chitin synthase 1 of Candida albicans chs2 Δ chs 3 Δ (Candida albicans, UniProt P23316); test: In vitro enzyme assay for chitin synthase 1 of Candida albicans (enzyme 1); assay type: biochemical; details: relative to polyoxin D (50% inhibitory activity = value 5)
T1 construct: Crude enzyme was prepared using the Candida albicans chs2 Δ chs 3 Δ mutant; endogenous in cells; host or cells: Candida albicans chs2Δ/chs2Δ chs3Δ/chs3Δ mutant; 130,000 x g membrane pellet
Experimental: Crude enzyme was prepared using the Candida albicans chs2 Δ chs 3 Δ mutant (chs2 Δ::hisG/chs2 Δ::hisG chs3 Δ::hisG/chs3 Δ::hisG) strain, which can only produce the chitin synthase 1. The strain was inoculated with the SDA (Sabouraud dextrose agar) culture medium (4% dextrose, 1% peptone, pH 5.6) and cultured at 30° C. for 15-17 hours until the absorbance at 550nm reaches 0.7. The cells were collected and suspended in a 50 mM Tris-HCl (pH 7.5) buffer solution containing 5 mM magnesium acetate. After centrifugation at 8,000×g for 10 minutes, the pellets were suspended in the same Tris-HCl buffer solution. The suspension was divided into aliquots in 50 mL conical test tubes. After adding glass beads, the cells were disrupted by vigorously vortexing with an interval of 30 seconds. The cell residues were removed by centrifuging at 3,000×g for 5 minutes. The supernatant was ultra-centrifuged at 130,000×g for 1 hour. The resultant pellets were collected and suspended in 50 mM Tris-HCl (pH 7.5) containing 33% glycerol, to a final volume of 1.6 mg/g (wet weight) of yeast used. The suspension was divided into aliquots and kept at −70° C. until it is used.
(§1) The inhibitory activities against the chitin synthase 1 of Candida albicans chs2 Δ chs 3 Δ (abbreviated as ‘enzyme 1’) and the chitin synthase 2 of Saccharomyces cerevisiae ECY38-38A(pAS6)(abbreviated as ‘enzyme 2’) was examined for compound Nos. 1 to 70 compound and polyoxin D, a positive control compound.
(§2) The inhibitory activity against the chitin synthase 1 prepared from Candida albicans and the chitin synthase 2 prepared from Saccharomyces cerevisiae were examined as follows. A reaction mixture containing 32 mM Tris-HCl (pH 7.5), 2 mM cobalt acetate, 1.1 mM UDP-[U-^14C]-N-acetyl-d-glucosamine (GlcNAc) (400,000 cpm/μmol), 2 μL of trypsin (0.75 mg/mL), 20 μL of each crude enzyme and 14 μL of each test sample was kept at 30° C. for 15 minutes to activate the enzyme. Then, 2 μL of trypsin inhibitor (1.5 mg/mL) was added and the mixture was kept in an ice bath for 10 minutes to deactivate trypsin. 2 μL of 0.8 M N-acetyl-d-glucosamine was added to a total volume of 50 μL and reaction was performed at 30° C. for 90 minutes. The reaction was stopped using 1 mL of 10% TCA solution and the reaction solution was filtered with a GF/C filter and dried at room temperature. After adding 3 mL of a scintillation cocktail solution, the amount of isotopes was measured using a liquid scintillation counter. Percentage inhibition against each enzyme was calculated by the following Equation 1.
(§3) The control group was not added with a test sample in the reaction mixture and that of the untreated group contained neither the test sample nor the crude enzyme.
(§4) A 50% inhibitory activity of polyoxin D against the enzyme was given the value 5. A compound having the same inhibitory activity as that of polyoxin D at the same concentration was given the value 5. Compounds having the inhibitory activity at 2-fold, 4-fold, 8-fold and 16-fold higher concentrations than that of polyoxin D were given the values of 4, 3, 2 and 1, respectively. On the other hand, compounds having the inhibitory activity at ½, ¼ and ⅛ lower concentrations than that of polyoxin D were given the values of 6, 7 and 8, respectively.

[2] = molecular target: T2, chitin synthase 2 of Saccharomyces cerevisiae ECY38-38A(pAS6) (Saccharomyces cerevisiae, UniProt P14180); test: In vitro enzyme assay for chitin synthase 2 of Saccharomyces cerevisiae (enzyme 2); assay type: biochemical; details: relative to polyoxin D (50% inhibitory activity = value 5)
T2 construct: made in house; host or cells: Saccharomyces cerevisiae ECY38-38A (chs1-23 chs2::LEU2 cal1/csd2) carrying plasmid pAS6, grown in galactose medium; 130,000 x g membrane pellet
Experimental: Crude enzyme was prepared using the recombinant Saccharomyces cerevisiae ECY38-38A(pAS6) (MATa chs1-23 chs2::LEU2 cal 1/csd 2 ura 3-52 trp 1-1 leu 2-2 pAS6) strain, which can produce the chitin synthase 2 only. The strain was inoculated with the YPG culture medium (1% yeast extract, 2% peptone, 2% galactose) and cultured at 30° C. overnight. Then, it was inoculated with a fresh YPG culture medium and cultured for 15-17 hours until the Absorbance at 550 nm reaches 1.0. The cells were collected and suspended in 50 mM Tris-HCl (pH 7.5) buffer containing 5 mM magnesium acetate. After centrifugation at 8,000×g for 10 minutes, the pellets were suspended in the same Tris-HCl buffer solution. The suspension was divided into aliquots in 50 mL conical test tubes. After adding the glass beads, the cells were disrupted by vigorously vortexing with an interval of 30 seconds. The cell residues were removed by centrifuging at 3,000×g for 5 minutes. The supernatant was ultra-centrifuged at 130,000×g for 1 hour. The resultant pellets were collected and suspended in 50 mM Tris-HCl (pH 7.5) containing 33% glycerol, to a final volume of 1.6 mg/g (wet weight) of yeast used. The suspension was divided into aliquots and kept at −70° C. until it is used.
as §1, §2, §3, §4

T2 sequence (P14180 whole entry): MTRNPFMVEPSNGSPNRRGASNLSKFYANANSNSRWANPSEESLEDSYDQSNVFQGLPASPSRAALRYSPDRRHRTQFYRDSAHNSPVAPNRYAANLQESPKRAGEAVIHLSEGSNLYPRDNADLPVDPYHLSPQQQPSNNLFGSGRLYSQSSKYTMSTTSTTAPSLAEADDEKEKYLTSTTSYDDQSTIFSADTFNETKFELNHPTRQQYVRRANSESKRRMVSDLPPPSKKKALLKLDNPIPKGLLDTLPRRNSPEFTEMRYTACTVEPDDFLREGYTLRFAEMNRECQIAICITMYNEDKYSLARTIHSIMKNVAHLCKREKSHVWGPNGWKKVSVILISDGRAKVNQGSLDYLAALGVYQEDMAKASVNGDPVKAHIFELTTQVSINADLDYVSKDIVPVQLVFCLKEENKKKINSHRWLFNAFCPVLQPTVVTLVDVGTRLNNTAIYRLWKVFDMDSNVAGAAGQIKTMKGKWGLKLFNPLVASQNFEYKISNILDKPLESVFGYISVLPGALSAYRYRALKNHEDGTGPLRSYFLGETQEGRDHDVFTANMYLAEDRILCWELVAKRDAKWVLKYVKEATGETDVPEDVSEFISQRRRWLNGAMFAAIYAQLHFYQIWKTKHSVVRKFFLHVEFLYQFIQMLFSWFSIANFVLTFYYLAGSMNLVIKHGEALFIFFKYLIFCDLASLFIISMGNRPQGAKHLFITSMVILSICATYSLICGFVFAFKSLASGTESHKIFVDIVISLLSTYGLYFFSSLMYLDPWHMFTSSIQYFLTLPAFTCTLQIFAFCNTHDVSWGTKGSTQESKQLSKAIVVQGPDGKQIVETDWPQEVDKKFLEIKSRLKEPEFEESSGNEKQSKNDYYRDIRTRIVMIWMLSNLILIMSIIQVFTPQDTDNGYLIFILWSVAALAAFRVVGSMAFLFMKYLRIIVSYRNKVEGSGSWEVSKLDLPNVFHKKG
T1 sequence (P23316 whole entry, stated change not applied): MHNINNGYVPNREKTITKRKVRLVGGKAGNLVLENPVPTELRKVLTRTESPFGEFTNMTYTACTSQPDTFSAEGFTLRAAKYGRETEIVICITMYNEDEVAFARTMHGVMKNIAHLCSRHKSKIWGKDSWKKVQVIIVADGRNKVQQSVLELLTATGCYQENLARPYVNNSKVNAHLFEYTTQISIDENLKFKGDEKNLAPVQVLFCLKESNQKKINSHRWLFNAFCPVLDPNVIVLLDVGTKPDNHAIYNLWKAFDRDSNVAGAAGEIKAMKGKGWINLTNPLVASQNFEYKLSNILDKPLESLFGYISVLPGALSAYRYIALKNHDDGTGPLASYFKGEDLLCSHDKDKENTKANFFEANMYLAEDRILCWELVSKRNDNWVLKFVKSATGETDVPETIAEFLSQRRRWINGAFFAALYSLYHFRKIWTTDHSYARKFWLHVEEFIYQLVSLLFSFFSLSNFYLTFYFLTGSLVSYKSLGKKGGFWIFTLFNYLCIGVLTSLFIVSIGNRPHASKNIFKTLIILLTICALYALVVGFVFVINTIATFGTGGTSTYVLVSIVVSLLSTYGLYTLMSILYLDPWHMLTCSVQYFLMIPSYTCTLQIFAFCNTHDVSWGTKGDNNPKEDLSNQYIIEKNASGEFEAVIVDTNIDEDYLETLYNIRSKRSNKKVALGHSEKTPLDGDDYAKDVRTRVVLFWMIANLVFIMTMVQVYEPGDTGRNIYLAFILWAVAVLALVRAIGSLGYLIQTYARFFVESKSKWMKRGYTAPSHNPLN

“13-(3,4,5-Trifluorobenzyl)-9-O-butylberberrubine iodide [Compound No. 27]” was tested, and the “Relative activity Enzyme 1” value [1] was 3 (Compounds having the inhibitory activity at 2-fold, 4-fold, 8-fold and 16-fold higher concentrations than that of polyoxin D were given the values of 4, 3, 2 and 1, respectively) and the “Relative activity Enzyme 2” value [2] was 6 (compounds having the inhibitory activity at ½, ¼ and ⅛ lower concentrations than that of polyoxin D were given the values of 6, 7 and 8, respectively).

In the case of “13-(3,4,5-Trifluorobenzyl)-9-O-hexylberberrubine chloride [Compound No. 60]”, the “Relative activity Enzyme 1” value [1] is reported as 2 (Compounds having the inhibitory activity at 2-fold, 4-fold, 8-fold and 16-fold higher concentrations than that of polyoxin D were given the values of 4, 3, 2 and 1, respectively) and the “Relative activity Enzyme 2” value [2] is reported as 5 (A compound having the same inhibitory activity as that of polyoxin D at the same concentration was given the value 5).

“13-(3,4,5-Trifluorobenzyl)-9-O-hexylberberrubine iodide [Compound No. 28]” was tested, and the “Relative activity Enzyme 1” value [1] was 2 (Compounds having the inhibitory activity at 2-fold, 4-fold, 8-fold and 16-fold higher concentrations than that of polyoxin D were given the values of 4, 3, 2 and 1, respectively) and the “Relative activity Enzyme 2” value [2] was 5 (A compound having the same inhibitory activity as that of polyoxin D at the same concentration was given the value 5).

“13-(3,4,5-Trifluorobenzyl)berberrubine [Compound No. 1]” was tested, and the “Relative activity Enzyme 1” value [1] was 1 (Compounds having the inhibitory activity at 2-fold, 4-fold, 8-fold and 16-fold higher concentrations than that of polyoxin D were given the values of 4, 3, 2 and 1, respectively) and the “Relative activity Enzyme 2” value [2] was 3 (Compounds having the inhibitory activity at 2-fold, 4-fold, 8-fold and 16-fold higher concentrations than that of polyoxin D were given the values of 4, 3, 2 and 1, respectively).

“13-(3,4,5-Trimethoxybenzyl)-9-O-butylberberrubine chloride [Compound No. 62]” was tested, and the “Relative activity Enzyme 1” value [1] was 2 (Compounds having the inhibitory activity at 2-fold, 4-fold, 8-fold and 16-fold higher concentrations than that of polyoxin D were given the values of 4, 3, 2 and 1, respectively) and the “Relative activity Enzyme 2” value [2] was 5 (A compound having the same inhibitory activity as that of polyoxin D at the same concentration was given the value 5).

With “13-(3,4,5-Trimethoxybenzyl)-9-O-hexylberberrubine chloride [Compound No. 63]” the “Relative activity Enzyme 1” value [1] was 2 (Compounds having the inhibitory activity at 2-fold, 4-fold, 8-fold and 16-fold higher concentrations than that of polyoxin D were given the values of 4, 3, 2 and 1, respectively) and the “Relative activity Enzyme 2” value [2] was 4 (Compounds having the inhibitory activity at 2-fold, 4-fold, 8-fold and 16-fold higher concentrations than that of polyoxin D were given the values of 4, 3, 2 and 1, respectively).

With “13-(3,4,5-Trimethoxybenzyl)-9-O-hexylberberrubine iodide [Compound No. 31]” the “Relative activity Enzyme 1” value [1] was 2 (Compounds having the inhibitory activity at 2-fold, 4-fold, 8-fold and 16-fold higher concentrations than that of polyoxin D were given the values of 4, 3, 2 and 1, respectively) and the “Relative activity Enzyme 2” value [2] was 4 (Compounds having the inhibitory activity at 2-fold, 4-fold, 8-fold and 16-fold higher concentrations than that of polyoxin D were given the values of 4, 3, 2 and 1, respectively).

In the case of “13-(3,4,5-Trimethoxybenzyl)berberrubine [Compound No. 2]”, the “Relative activity Enzyme 1” value [1] is reported as 1 (Compounds having the inhibitory activity at 2-fold, 4-fold, 8-fold and 16-fold higher concentrations than that of polyoxin D were given the values of 4, 3, 2 and 1, respectively) and the “Relative activity Enzyme 2” value [2] is reported as 3 (Compounds having the inhibitory activity at 2-fold, 4-fold, 8-fold and 16-fold higher concentrations than that of polyoxin D were given the values of 4, 3, 2 and 1, respectively).

In the case of “13-(3,4,5-trifluorobenzyl)-9-O-butylberberrubine chloride [Compound No. 59]”, the “Relative activity Enzyme 1” value [1] is reported as 3 (Compounds having the inhibitory activity at 2-fold, 4-fold, 8-fold and 16-fold higher concentrations than that of polyoxin D were given the values of 4, 3, 2 and 1, respectively) and the “Relative activity Enzyme 2” value [2] is reported as 5 (A compound having the same inhibitory activity as that of polyoxin D at the same concentration was given the value 5).

“13-(3,4,5-trimethoxybenzyl)-9-O-butylberberrubine iodide [Compound No. 30]” was tested, and the “Relative activity Enzyme 1” value [1] was 2 (Compounds having the inhibitory activity at 2-fold, 4-fold, 8-fold and 16-fold higher concentrations than that of polyoxin D were given the values of 4, 3, 2 and 1, respectively) and the “Relative activity Enzyme 2” value [2] was 5 (A compound having the same inhibitory activity as that of polyoxin D at the same concentration was given the value 5).

“13-(4-Isopropylbenzyl)berberrubine [Compound No. 6]” was tested, and the “Relative activity Enzyme 1” value [1] was 2 (Compounds having the inhibitory activity at 2-fold, 4-fold, 8-fold and 16-fold higher concentrations than that of polyoxin D were given the values of 4, 3, 2 and 1, respectively) and the “Relative activity Enzyme 2” value [2] was 4 (Compounds having the inhibitory activity at 2-fold, 4-fold, 8-fold and 16-fold higher concentrations than that of polyoxin D were given the values of 4, 3, 2 and 1, respectively).

“13-(4-Trifluoromethoxybenzyl)-9-O-butylberberrubine chloride [Compound No. 65]” was tested, and the “Relative activity Enzyme 1” value [1] was 3 (Compounds having the inhibitory activity at 2-fold, 4-fold, 8-fold and 16-fold higher concentrations than that of polyoxin D were given the values of 4, 3, 2 and 1, respectively) and the “Relative activity Enzyme 2” value [2] was 6 (compounds having the inhibitory activity at ½, ¼ and ⅛ lower concentrations than that of polyoxin D were given the values of 6, 7 and 8, respectively).

In the case of “13-(4-Trifluoromethoxybenzyl)-9-O-butylberberrubine iodide [Compound No. 33]”, the “Relative activity Enzyme 1” value [1] is reported as 3 (Compounds having the inhibitory activity at 2-fold, 4-fold, 8-fold and 16-fold higher concentrations than that of polyoxin D were given the values of 4, 3, 2 and 1, respectively) and the “Relative activity Enzyme 2” value [2] is reported as 6 (compounds having the inhibitory activity at ½, ¼ and ⅛ lower concentrations than that of polyoxin D were given the values of 6, 7 and 8, respectively).

In the case of “13-(4-Trifluoromethoxybenzyl)-9-O-hexylberberrubine chloride [Compound No. 66]”, the “Relative activity Enzyme 1” value [1] is reported as 2 (Compounds having the inhibitory activity at 2-fold, 4-fold, 8-fold and 16-fold higher concentrations than that of polyoxin D were given the values of 4, 3, 2 and 1, respectively) and the “Relative activity Enzyme 2” value [2] is reported as 5 (A compound having the same inhibitory activity as that of polyoxin D at the same concentration was given the value 5).
